{"source": "patent US6365618B1", "about": "“Administration of carvedilol to mitigate tardive movement disorders, psychosis, mania, and depression” (priority 2000, dated 2002)", "key": {"tardive dyskinesia [1]": {"system": "tardive dyskinesia", "conditions": "most studies; cited from earlier work"}, "[2]": {"system": "orofacial movements caused by haloperidol", "conditions": "one-day and two-week trials; cited from earlier work"}, "tardive dyskinesia [3]": {"system": "tardive dyskinesia", "assay": "Case reports: oral carvedilol in hospitalized patients with tardive dyskinesia", "type": "in vivo, human", "procedure": "(§1) Clozapine is recognized as a drug that, because of dangerous side-effects, is reserved as the last resort after the failure of long courses and high doses of several other antipsychotic medications. […] Carvedilol 6.25 mg once daily was then started. On 11/15 the carvedilol dose was increased to 6.25 mg twice daily. […] On the ninth hospital day carvedilol was discontinued.\nOn the first hospital day carvedilol 3.125 mg twice daily was started. […] Carvedilol was then restarted. […] Carvedilol was continued for a month.\nThis person was admitted to the hospital for the treatment of an anxiety disorder whose symptoms included insomnia, nightmares, unhappiness, suicidality, continual worry, and panic attacks. They had previously taken the antidepressants nortriptyline and fluoxetine, and was taking nefazodone 375 mg/day for one year. They were also taking the antihypertensive medication benazepril 40 mg/day, and the sleeping medication zaleplon 10 mg/day. […] They then received carvedilol 3.125 mg twice daily.\nThis person was in the hospital because of difficulty swallowing. […] This aspiration put them at risk of aspiration pneumonia, which is disabling and can be life-threatening. For them to receive water and food a tube was surgically inserted between their stomach and the outside of their abdomen. […] They then received carvedilol 6.25 mg twice daily."}, "tardive akathisia": {"system": "tardive akathisia", "assay": "Case reports: oral carvedilol, agitated movements of tardive akathisia", "type": "in vivo, human", "from_the_text": "These movements were consistent with tardive dyskinesia. […] They mentioned having been told by several psychiatrists that […] has tardive dyskinesia, and that […]'d previously taken numerous different antipsychotic drugs, including risperidone, olanzapine, and clozapine. Clozapine is recognized as a drug that, because of dangerous side-effects, is reserved as the last resort after the failure of long courses and high doses of several other antipsychotic medications. On the third hospital day, a Friday (Nov. 13, 1998), the tongue protrusion movements continued unchanged. Carvedilol 6.25 mg once daily was then started. On 11/15 the carvedilol dose was increased to 6.25 mg twice daily. When next evaluated, at 9am on Monday 11/16, the tongue protrusions were absent. The absence of dyskinesia persisted despite the patient's repeated expressions of anxiety and anxious thoughts. […] Agitation then decreased, a sign of improvement in tardive akathisia. On the ninth hospital day carvedilol was discontinued. The patient was discharged on the 15th hospital day, without recurrence of any tongue protrusion, and without observable agitation. […] They spontaneously complained that children in their neighborhood mocked them and called them a witch because of the tongue movements. They stated that […] avoids leaving the house because of harassment by the children. […]"}, "tardive dystonia": {"system": "tardive dystonia", "assay": "Case report: oral carvedilol, tardive dystonia and swallowing difficulty", "type": "in vivo, human", "conditions": "Case #4; carvedilol 6.25 mg twice daily; 28 hours, after three doses", "from_the_text": "This person was in the hospital because of difficulty swallowing. This began about a year prior to hospitalization while taking haloperidol and lithium medications. Increasingly they would cough while eating or drinking. […] The swallowing difficulty worsened despite replacement of lithium and haloperidol with divalproex and olanzapine. […] This aspiration put them at risk of aspiration pneumonia, which is disabling and can be life-threatening. For them to receive water and food a tube was surgically inserted between their stomach and the outside of their abdomen. […] When they tried to drink water from a cup these movements obviously interfered with swallowing. […] On the Abnormal Involuntary Movement SCALE (AIMS) they scored 13. They then received carvedilol 6.25 mg twice daily. Twenty-eight hours later, after three doses, their swallowing was rated by the Speech Therapy Department as 70% improved."}, "[4]": {"assay": "Side effects of carvedilol in patients", "type": "in vivo, human", "procedure": "as §1"}, "[5]": {"conditions": "cited from earlier work"}, "[6]": {"conditions": "cited from earlier work", "remark": "listed apart in the source"}, "[7]": {"system": "acute dystonias induced by antipsychotic medication", "conditions": "monkeys; cited from earlier work"}, "[8]": {"conditions": "Case #3, carvedilol 3.125 mg twice daily, 24 hours, after two doses"}}}
{"compound": "vitamin E", "values": [{"measurement": "improvement of TD", "setting": "tardive dyskinesia [1]", "result": "no significant improvement"}]}
{"compound": "CC(C)NCC(O)COc1cccc2ccccc12", "note": "(stereo not drawn) [propranolol]", "values": [{"measurement": "orofacial movements caused by haloperidol", "setting": "[2]", "result": "did not diminish"}]}
{"compound": "COc1ccccc1OCCNCC(O)COc1cccc2[nH]c3ccccc3c12", "note": "(racemic) [carvedilol, ±-1-(carbazol-4-yloxy)-3-[[2-(o-methyoxyphenoxy)ethyl]amino]-2-propanol]", "values": [{"measurement": "tongue protrusions", "setting": "tardive dyskinesia [3]; Case #1, carvedilol 6.25 mg once daily, then twice daily, evaluated after 3 days", "result": "absent"}, {"measurement": "tongue protrusions", "setting": "tardive dyskinesia [3]; Case #2, carvedilol 3.125 mg twice daily, next day", "result": "no extensions of the tongue out of the mouth occurred"}, {"measurement": "tongue protrusions after carvedilol restarted", "setting": "tardive dyskinesia [3]; Case #2, rehospitalized, carvedilol restarted, beginning on the next day", "result": "no longer seen"}, {"measurement": "chewing movements", "setting": "tardive dyskinesia [3]; [8]", "result": "gone"}, {"measurement": "lip and tongue movements", "setting": "tardive dyskinesia [3]; [8]", "result": "in normal range"}, {"measurement": "AIMS score (Abnormal Involuntary Movement Scale)", "setting": "tardive dyskinesia [3]; Case #3, carvedilol 3.125 mg twice daily, 24 hours, after two doses, score before treatment 11", "result": 6}, {"measurement": "tongue dyskinesia", "setting": "tardive dyskinesia [3]; Case #4, carvedilol 6.25 mg twice daily, 28 hours, after three doses", "result": "decreased from mild to marginal"}, {"measurement": "AIMS score (Abnormal Involuntary Movement Scale)", "setting": "tardive dyskinesia [3]; Case #4, carvedilol 6.25 mg twice daily, 28 hours, after three doses, score before treatment 13", "result": 8}, {"measurement": "agitation (sign of tardive akathisia)", "setting": "tardive akathisia; Case #1, carvedilol 6.25 mg in the morning and 12.5 mg at bedtime", "result": "decreased"}, {"measurement": "agitated movements consistent with tardive akathisia", "setting": "tardive akathisia; Case #2, at discharge after one week of carvedilol", "result": "no agitated movements"}, {"measurement": "facial dystonia", "setting": "tardive dystonia", "result": "disappeared"}, {"measurement": "neck dystonia", "setting": "tardive dystonia", "result": "decreased from moderate to mild"}, {"measurement": "swallowing improvement rated by Speech Therapy Department", "setting": "tardive dystonia", "result": 70, "unit": "%"}, {"measurement": "faintness or bradycardia", "setting": "[4]; Case #1, carvedilol 6.25 mg twice daily", "result": "lack of any faintness or bradycardia"}, {"measurement": "side effects", "setting": "[4]; usually effective doses to treat TD", "result": "non-existent or mild"}, {"measurement": "average elimination half-life", "setting": "[5]; from the human body", "result": "about 8 hours"}, {"measurement": "absorption", "setting": "[5]; taken by mouth", "result": "rapid and complete"}, {"measurement": "in vitro antioxidant activity", "setting": "[6]", "result": "exceptionally potent"}]}
{"compound": "C#CCN(C)Cc1ccccc1", "note": "[pargyline]", "values": [{"measurement": "acute dystonias induced by antipsychotic medication", "setting": "[7]", "result": "reduced"}]}
